Here are results for twelve compounds from ChEMBL document CHEMBL1138163, “Potent 2-[(pyrimidin-4-yl)amine}-1,3-thiazole-5-carbonitrile-based inhibitors of VEGFR-2 (KDR) kinase” (Bioorg Med Chem Lett, 2006).

The structures appear in SMILES notation.

The target of data set [1] is Voltage-gated inwardly rectifying potassium channel KCNH2 (Homo sapiens, UniProt Q12809). Description: Displacement of [3H]dofetilide from human ERG.
Data set [2] can be described thus: Oral bioavailability in dog at 1 mg/kg, po. Type of data set: ADME, organism-based, Canis lupus familiaris. To be noted: in vivo.
The nature of data set [3]: Volume of distribution in rat at 2 mg/kg, iv and 10 mg/kg, po. Type of data set: ADME, organism-based. To be noted: in vivo, read-out: Vdss.
The subject of the next data set is Canis familiaris. Description: AUC in Beagle dog at 0.25 mg/kg, iv. It is filed as ADME, organism-based, Canis lupus familiaris, Plasma. The arrangement: dose 0.25 mg/kg, route intravenous. To be noted: in vivo.
Data set [4] in a line: Clearance in dog at 1 mg/kg, iv and 1 mg/kg, po. Type of data set: ADME, organism-based, Canis lupus familiaris. To be noted: in vivo.
Data set [5] can be described thus: Clearance in rat at 2 mg/kg, iv and 10 mg/kg, po. It is filed as ADME, organism-based. To be noted: in vivo.
Data set [6] in a line: Clearance in rhesus monkey at 1 mg/kg, iv and 1 mg/kg, po. Particulars: in vivo. Type of data set: ADME, organism-based, Macaca mulatta.
Data set [7] in a line: Oral bioavailability in rat at 10 mg/kg, po. It is filed as ADME, organism-based. Particulars: in vivo.
The nature of data set [8]: Volume of distribution in dog at 1 mg/kg, iv and 1 mg/kg, po. It is filed as ADME, organism-based, Canis lupus familiaris. To be noted: in vivo, read-out: Vdss.
Data set [9] in a line: Half life in Beagle dog at 0.25 mg/kg, iv. It is filed as ADME, organism-based, Canis lupus familiaris. The arrangement: dose 0.25 mg/kg, route intravenous. Particulars: in vivo.
Data set [10] is described as follows: Volume of distribution in Beagle dog at 0.25 mg/kg, iv. It is filed as ADME, organism-based, Canis lupus familiaris. More on the design: dose 0.25 mg/kg, route intravenous. Particulars: in vivo, read-out: Vdss.
Data set [11] is described as follows: Oral bioavailability in rhesus monkey at 1 mg/kg, po. It is filed as ADME, organism-based, Macaca mulatta. Particulars: in vivo.
Data set [12] can be described thus: Volume of distribution in rhesus monkey at 1 mg/kg, iv and 1 mg/kg, po. Particulars: in vivo, read-out: Vdss. It is filed as ADME, organism-based, Macaca mulatta.

Sequence of Voltage-gated inwardly rectifying potassium channel KCNH2 (Q12809 whole entry): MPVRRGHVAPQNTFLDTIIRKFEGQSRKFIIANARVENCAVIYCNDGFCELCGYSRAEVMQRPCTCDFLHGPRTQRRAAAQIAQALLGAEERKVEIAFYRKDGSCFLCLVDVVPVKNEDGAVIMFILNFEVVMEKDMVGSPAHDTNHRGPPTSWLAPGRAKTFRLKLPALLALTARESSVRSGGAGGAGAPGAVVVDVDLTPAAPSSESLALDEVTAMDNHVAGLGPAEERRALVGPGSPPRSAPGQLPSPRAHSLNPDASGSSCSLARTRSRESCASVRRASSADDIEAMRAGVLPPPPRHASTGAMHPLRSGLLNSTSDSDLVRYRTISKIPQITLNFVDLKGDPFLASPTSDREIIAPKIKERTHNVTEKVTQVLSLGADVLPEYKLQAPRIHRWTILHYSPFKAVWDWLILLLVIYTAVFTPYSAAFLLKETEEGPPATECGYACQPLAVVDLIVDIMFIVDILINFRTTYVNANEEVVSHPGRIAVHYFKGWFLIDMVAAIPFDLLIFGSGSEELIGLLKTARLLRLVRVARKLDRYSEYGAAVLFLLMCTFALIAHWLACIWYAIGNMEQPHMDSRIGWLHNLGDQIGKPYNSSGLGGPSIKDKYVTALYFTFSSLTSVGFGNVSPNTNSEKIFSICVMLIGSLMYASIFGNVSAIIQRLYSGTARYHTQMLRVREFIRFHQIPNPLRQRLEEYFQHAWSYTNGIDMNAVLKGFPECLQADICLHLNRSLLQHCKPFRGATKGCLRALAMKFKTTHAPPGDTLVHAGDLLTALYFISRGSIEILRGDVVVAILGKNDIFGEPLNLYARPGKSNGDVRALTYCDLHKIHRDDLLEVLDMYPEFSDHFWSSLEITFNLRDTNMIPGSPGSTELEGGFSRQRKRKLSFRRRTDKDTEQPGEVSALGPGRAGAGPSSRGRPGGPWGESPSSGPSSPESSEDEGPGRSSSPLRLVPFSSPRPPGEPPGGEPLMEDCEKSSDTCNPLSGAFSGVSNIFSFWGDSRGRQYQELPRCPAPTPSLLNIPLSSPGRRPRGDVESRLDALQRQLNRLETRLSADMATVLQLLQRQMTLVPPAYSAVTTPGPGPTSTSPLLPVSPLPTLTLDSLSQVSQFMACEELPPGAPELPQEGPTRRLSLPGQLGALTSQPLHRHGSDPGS

`CN1CCN(c2cc(Nc3ncc(C#N)s3)ncn2)CC1`: in data set [1], the Activity was 0.923 µM.

`N#Cc1cnc(Nc2ccnc(N)n2)s1` yielded an Activity in [1] above 10 µM.

A word on the bioavailability: it is the share of a dose that reaches the circulation, judged against a reference dose that is usually intravenous. In general, AUC refers to the area under the concentration-time curve, a measure of exposure. As usually defined, the half-life is the time needed for the level to fall by half in the phase considered. `N#Cc1cnc(Nc2cc(N3CCN(CCN4CCOCC4)CC3)ncn2)s1`: the bioavailability in data set [2] is 51%; in data set [7] it was above 99%; in data set [11], 54%. The Vd amounted to 3.32 L/kg in [3], 2.72 L/kg in data set [8], 2.4 L/kg in data set [10] and 10.1 L/kg in [12]. This compound also had an AUC in the data set with Canis familiaris of 10.2 µM·h. Besides, the clearance in [4] came out at 4.11 mL/min/kg; in data set [5], 38.7 mL/min/kg; in data set [6] it was 22.7 mL/min/kg. Further, the Activity in data set [1] is 5 µM. In [9], this compound showed a half-life of 10.5 h.

On to `N#Cc1cnc(Nc2cc(N3CCN(CCN4CCCC4)CC3)ncn2)s1`, for which the AUC in the data set with Canis familiaris came to 6.07 µM·h. In data set [1], this compound came in with an Activity of 0.383 µM. In data set [9], this compound gave a half-life of 23 h. Also, the Vd in data set [10] stood at 14.1 L/kg.

In turn, `COCCN1CCN(c2cc(Nc3ncc(C#N)s3)ncn2)CC1` registered an AUC with Canis familiaris of 4.81 µM·h. In [9], this compound showed a half-life of 2 h. Besides, the Vd in data set [10] amounted to 1.31 L/kg.

`N#Cc1cnc(Nc2cc(N3CCCNCC3)ncn2)s1` had an Activity in data set [1] of 2.951 µM.

Turning to `N#Cc1cnc(Nc2cc(N3CCC(N)CC3)ncn2)s1`, in the data set with Canis familiaris, the AUC was found to be 1.91 µM·h. In addition, the Activity in data set [1] was determined as 6.643 µM. Further, in [9], the half-life is 1.34 h. In [10], the Vd amounted to 3.65 L/kg.

Take `CC(=O)N1CCN(c2cc(Nc3ncc(C#N)s3)ncn2)CC1`: the Activity in [1] was 3.291 µM.

In the case of `N#Cc1cnc(Nc2cc(N3CCCC(N)CC3)ncn2)s1` (stereo not given), in [1], the Activity was determined as 1.012 µM.

The compound `N#Cc1cnc(Nc2ccncn2)s1` gave an Activity in data set [1] of 2.932 µM.

With `N#Cc1cnc(Nc2cc(N)ncn2)s1`, the Activity in data set [1] is above 10 µM.

`N#Cc1cnc(Nc2cc(N3CCN(CCCN4CCOCC4)CC3)ncn2)s1` gave an AUC with Canis familiaris of 3.08 µM·h. The compound also yielded an Activity in data set [1] of 4.003 µM. For the same compound, the half-life in data set [9] is 7.97 h. Moreover, the Vd in [10] stood at 14.8 L/kg.
